From PubChem BioAssay (NCI)
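Grown in 96-well plates, cells were treated for 48 hours with each compound at five concentrations. Insufficient inhibition: endpoint recorded as highest concentration tested. At the TGI there is no net growth.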

Tests used:
Assay in all cases: growth of human tumour cells (NCI), 48 h
[1] = tested on: A498 renal
[2] = tested on: ACHN renal
[3] = tested on: CCRF-CEM leukemia
[4] = tested on: COLO 205 colon
[5] = tested on: DMS 114 small cell lung
[6] = tested on: HCT-116 colon
[7] = tested on: HL-60(TB) leukemia
[8] = tested on: HOP-62 NSCLC
[9] = tested on: HOP-92 NSCLC
[10] = tested on: HT29 colon
[11] = tested on: IGROV1 ovarian
[12] = tested on: KM12 colon
[13] = tested on: KM20L2 colon
[14] = tested on: LXFL 529 NSCLC
[15] = tested on: M14 melanoma
[16] = tested on: M19-MEL melanoma
[17] = tested on: MALME-3M melanoma
[18] = tested on: NCI-H23 lung
[19] = tested on: NCI-H460 lung
[20] = tested on: OVCAR-3 ovarian
[21] = tested on: OVCAR-4 ovarian
[22] = tested on: OVCAR-5 ovarian
[23] = tested on: RPMI-8226 leukemia
[24] = tested on: RXF 393 renal
[25] = tested on: SF-268 CNS
[26] = tested on: SF-295 CNS
[27] = tested on: SF-539 CNS
[28] = tested on: SK-MEL-2 melanoma
[29] = tested on: SK-MEL-28 melanoma
[30] = tested on: SK-OV-3 ovarian
[31] = tested on: SNB-19 CNS
[32] = tested on: SNB-75 CNS
[33] = tested on: SNB-78 CNS
[34] = tested on: U251 CNS
[35] = tested on: UACC-257 melanoma
[36] = tested on: UACC-62 melanoma
[37] = tested on: UO-31 renal
[38] = tested on: 786-0 renal
[39] = tested on: A549 NSCLC
[40] = tested on: BT-549 breast
[41] = tested on: CAKI-1 renal
[42] = tested on: DU-145 prostate
[43] = tested on: EKVX NSCLC
[44] = tested on: HCC-2998 colon
[45] = tested on: HCT-15 colon
[46] = tested on: HS 578T breast
[47] = tested on: K-562 leukemia
[48] = tested on: LOX IMVI melanoma
[49] = tested on: MCF7 breast
[50] = tested on: MDA-MB-231 breast
[51] = tested on: MDA-MB-435
[52] = tested on: MDA-N
[53] = tested on: MOLT-4 leukemia
[54] = tested on: NCI-H226 lung
[55] = tested on: NCI-H522 lung
[56] = tested on: NCI/ADR-RES ovarian
[57] = tested on: OVCAR-8 ovarian
[58] = tested on: PC-3 prostate
[59] = tested on: SK-MEL-5 melanoma
[60] = tested on: SN12C renal
[61] = tested on: SR leukemia
[62] = tested on: SW-620 colon
[63] = tested on: T-47D breast
[64] = tested on: TK-10 renal
[65] = tested on: DLD-1 colon
[66] = tested on: DMS 273 small cell lung
[67] = tested on: XF 498 CNS

CCCCOP(=O)(OCCCC)/C(C#N)=C/c1ccco1
TGI [1]: > 100 µM | TGI [2]: > 100 µM | TGI [3]: > 100 µM | TGI [4]: > 100 µM | TGI [5]: > 100 µM | TGI [6]: > 100 µM | TGI [7]: > 100 µM | TGI [8]: > 100 µM | TGI [9]: > 100 µM | TGI [10]: > 100 µM | TGI [11]: > 100 µM | TGI [12]: > 100 µM | TGI [13]: > 100 µM | TGI [14]: > 100 µM | TGI [15]: > 100 µM | TGI [16]: > 100 µM | TGI [17]: > 100 µM | TGI [18]: > 100 µM | TGI [19]: > 100 µM | TGI [20]: > 100 µM | TGI [21]: > 100 µM | TGI [22]: > 100 µM | TGI [23]: > 100 µM | TGI [24]: > 100 µM | TGI [25]: > 100 µM | TGI [26]: > 100 µM | TGI [27]: > 100 µM | TGI [28]: > 100 µM | TGI [29]: > 100 µM | TGI [30]: > 100 µM | TGI [31]: > 100 µM | TGI [32]: > 100 µM | TGI [33]: > 100 µM | TGI [34]: > 100 µM | TGI [35]: > 100 µM | TGI [36]: > 100 µM | TGI [37]: > 100 µM

C=C1C(=O)O[C@H]2[C@H]1[C@H](OC(=O)/C(C)=C\C)C[C@]1(CO1)[C@@H]1[C@H](OC(C)=O)C=C(C)[C@]21O
TGI [38]: 23.5 µM | TGI [1]: > 100 µM | TGI [39]: > 100 µM | TGI [2]: 24.5 µM | TGI [40]: 24.4 µM | TGI [41]: 36.8 µM | TGI [3]: 15.6 µM | TGI [4]: 19.4 µM | TGI [42]: 29 µM | TGI [43]: 33.8 µM | TGI [44]: 35.5 µM | TGI [6]: 20.3 µM | TGI [45]: 33.5 µM | TGI [7]: 12.9 µM | TGI [8]: > 100 µM | TGI [9]: 30.3 µM | TGI [46]: > 100 µM | TGI [10]: 30.4 µM | TGI [11]: 38.8 µM | TGI [47]: 11.8 µM | TGI [12]: 41.4 µM | TGI [48]: 29 µM | TGI [15]: 54.9 µM | TGI [17]: 35.3 µM | TGI [49]: 29.1 µM | TGI [50]: 39.5 µM | TGI [51]: 42.4 µM | TGI [52]: 34.8 µM | TGI [53]: 25.6 µM | TGI [54]: > 61.2 µM | TGI [18]: 53.2 µM | TGI [19]: > 89.8 µM | TGI [55]: 16.8 µM | TGI [56]: 57.4 µM | TGI [20]: 32.1 µM | TGI [21]: > 100 µM | TGI [22]: > 59.1 µM | TGI [57]: > 100 µM | TGI [58]: > 58.8 µM | TGI [23]: 15.2 µM | TGI [24]: 25.6 µM | TGI [25]: 45.5 µM | TGI [26]: > 100 µM | TGI [27]: > 93.9 µM | TGI [28]: > 58.3 µM | TGI [29]: 30.6 µM | TGI [59]: 37.2 µM | TGI [30]: > 100 µM | TGI [60]: 30.2 µM | TGI [31]: > 100 µM | TGI [32]: > 100 µM | TGI [61]: 28.5 µM | TGI [62]: 27.9 µM | TGI [63]: 36.5 µM | TGI [64]: 23.1 µM | TGI [34]: 52 µM | TGI [35]: 39.2 µM | TGI [36]: 32.2 µM | TGI [37]: 29.4 µM

O=C(O)c1ccc(N=Nc2cc(S(=O)(=O)O)c3cccnc3c2O)cc1
TGI [38]: > 100 µM | TGI [1]: > 100 µM | TGI [39]: > 100 µM | TGI [2]: > 100 µM | TGI [41]: > 100 µM | TGI [4]: > 100 µM | TGI [65]: > 100 µM | TGI [5]: > 100 µM | TGI [66]: > 100 µM | TGI [43]: > 100 µM | TGI [44]: > 100 µM | TGI [6]: > 100 µM | TGI [45]: > 100 µM | TGI [7]: > 100 µM | TGI [8]: > 100 µM | TGI [9]: > 100 µM | TGI [10]: > 100 µM | TGI [11]: > 100 µM | TGI [47]: > 100 µM | TGI [12]: > 100 µM | TGI [13]: > 100 µM | TGI [48]: > 100 µM | TGI [16]: > 100 µM | TGI [17]: > 100 µM | TGI [53]: > 100 µM | TGI [54]: > 100 µM | TGI [18]: > 100 µM | TGI [19]: > 100 µM | TGI [20]: > 100 µM | TGI [21]: > 100 µM | TGI [22]: > 100 µM | TGI [57]: > 100 µM | TGI [23]: > 100 µM | TGI [24]: > 100 µM | TGI [25]: > 100 µM | TGI [26]: > 100 µM | TGI [27]: > 100 µM | TGI [28]: > 100 µM | TGI [29]: > 100 µM | TGI [59]: > 100 µM | TGI [30]: > 100 µM | TGI [60]: > 100 µM | TGI [31]: > 100 µM | TGI [32]: > 100 µM | TGI [33]: > 100 µM | TGI [61]: > 100 µM | TGI [62]: > 100 µM | TGI [64]: > 100 µM | TGI [34]: > 100 µM | TGI [35]: > 100 µM | TGI [37]: > 100 µM | TGI [67]: > 100 µM
